SMILES strings stand for the structures. Values after ≈ are worked out from the molar mass of the structure shown.

Consider one molecule from patent US9226882B2, “Eco-friendly non-aqueous antimicrobial composition comprising tropolone with 1,3-propanediol and/or sorbitan caprylate” (ISP INVESTMENTS INC., priority 2012, dated 2016).

For assay [1], the system named is Trichoderma viride (DSM 63064). As to the kind of experiment: MIC study on agar, fungal strain. The format is cell-based. The protocol: (§1) Equal amounts of mixtures were poured into four Petri dishes. After cooling, the Petri dishes were inoculated with the respective standard strains. During the experiment, the Petri dishes were kept for 2 to 3 weeks at room temperature of about 20 to 25° C. in the dark. The following two different types of culture media were employed for the present studies: • i. […] The preferred bacterial strains for the present application are Pseudomonas aeruginosa (DSM 1128), Staphylococcus aureus (DSM 799), E. Coli (DSM 1576), Proteus mirabilis (DSM 788) and Burkholderia cepacia (DSM 7288), and the preferred fungal strains are Aspergillus brasiliensis (DSM 1988), Penicillium expansum (DSM 1282), Trichoderma viride (DSM 63064), and the yeast is Candida albicans, (DSM 1386). After 2nd and 3rd weeks macroscopic evaluations were performed, the ratings are as follows: The formulation under examination is considered to be efficient if the following conditions are duly fulfilled i.e. (i) after 2-3 weeks no growth of the tested culture is visible; (ii) with rising concentration of the tested formulation, the germ growth should macroscopically be reduced until it is not visible any more.

The test system of assay [2] is Penicillium expansum (DSM 1282). In words: MIC study on agar, fungal strain. Format: cell-based. The following applies: DSM1282, Penicillim expansum, Malt extract-Agar (3%) pH 5.6, 2 to 3 weeks at 20 to 25° C. in the dark. Here is the method: as §1
Assay [3] deals with Aspergillus brasiliensis (DSM 1988). As to the kind of experiment: MIC study on agar, fungal strain. Format: cell-based. The protocol: as §1
The subject of assay [4] is E. Coli (DSM 1576). In words: MIC study on agar, bacterial strain. Format: cell-based, Escherichia coli. Here is the method: as §1
Assay [5] concerns Pseudomonas aeruginosa (DSM 1128). As to the kind of experiment: MIC study on agar, bacterial strain. Format: cell-based. The following applies: DSM1128, Caso-Agar pH 7.3, 2 to 3 weeks at 20 to 25° C. in the dark. Here is the method:
as §1

Assay [6] has as its system Staphylococcus aureus (DSM 799). In words: MIC study on agar, bacterial strain. The format is cell-based. Particulars: DSM799, Caso-Agar pH 7.3, 2 to 3 weeks at 20 to 25° C. in the dark. The protocol: as §1
Assay [7] has as its system Burkholderia cepacia (DSM 7288). As to the kind of experiment: MIC study on agar, bacterial strain. The format is cell-based. The protocol:
as §1

Assay [8] concerns Proteus mirabilis (DSM 788). As to the kind of experiment: MIC study on agar, bacterial strain. Format: cell-based. Particulars: DSM788, Caso-Agar pH 7.3, 2 to 3 weeks at 20 to 25° C. in the dark. The protocol: as §1
In assay [9] the test system is Candida albicans, (DSM 1386). In words: MIC study on agar, yeast strain. Format: cell-based. Particulars: DSM1386, Candida albican, Malt extract-Agar (3%) pH 5.6, 2 to 3 weeks at 20 to 25° C. in the dark. The protocol:
as §1

For `O=c1cccccc1O` [Tropolone, 2-Hydroxy-2,4,6-cycloheptatrien-1-one], the MIC in assay [1] (DSM63064, Trichoderma viride, Malt extract-Agar (3%) pH 5.6, 2 to 3 weeks at 20 to 25° C. in the dark) stood at 250 µg/mL (≈ 2050 µM); in assay [2], 100 µg/mL (≈ 819 µM); in assay [3] (DSM1988, Aspergillus brasiliensis, Malt extract-Agar (3%) pH 5.6, 2 to 3 weeks at 20 to 25° C. in the dark) it was 50 µg/mL (≈ 409 µM); in [4] (DSM1576, Escherichia coli, Caso-Agar pH 7.3, 2 to 3 weeks at 20 to 25° C. in the dark), 250 µg/mL (≈ 2050 µM); in [5], 500 µg/mL (≈ 4090 µM); in assay [6], 250 µg/mL (≈ 2050 µM). The MIC in [7] (DSM7288, Burkholderia cepacia, Caso-Agar pH 7.3, 2 to 3 weeks at 20 to 25° C. in the dark) came out at 250 µg/mL (≈ 2050 µM); in assay [8], 250 µg/mL (≈ 2050 µM); in [9] it was 20 µg/mL (≈ 164 µM). Also, the “reduction of MIC level of tropolone” value is recorded as > 50% in assay [1] (by sorbitan caprylate (Velsan SC), against Trichoderma viride); > 50% in assay [3] (by sorbitan caprylate (Velsan SC), against Aspergillus brasiliensis); > 50% in [4] (in presence of 1,3-propanediol (Zemea), against Escherichia coli); > 90% in [7] (by sorbitan caprylate (Velsan SC), against Burkholderia cepacia).

The MIC is the lowest concentration found to suppress growth. Higher therefore signals a need for much substance.
